In patent US9938276B2, “6,5-bicyclic octahydropyrrolopyridine orexin receptor antagonists” (Merck Sharp & Dohme Corp., priority 2014, dated 2018):

Assays:
hOX1R = hOX1R (Homo sapiens, UniProt O43613); test: hOX1R FLIPR Ca2+ flux assay; type: cell-based; settings: CHO cells expressing the receptor; agonist 70 pM Ala-6,12 human orexin-A
human orexin-2 receptor = human orexin-2 receptor (Homo sapiens (Human), UniProt O43614); test: hOX2R FLIPR Ca2+ flux assay; type: cell-based; settings: CHO cells expressing the receptor; agonist 70 pM Ala-6,12 human orexin-A
Sequence of human orexin-2 receptor (O43614 whole entry): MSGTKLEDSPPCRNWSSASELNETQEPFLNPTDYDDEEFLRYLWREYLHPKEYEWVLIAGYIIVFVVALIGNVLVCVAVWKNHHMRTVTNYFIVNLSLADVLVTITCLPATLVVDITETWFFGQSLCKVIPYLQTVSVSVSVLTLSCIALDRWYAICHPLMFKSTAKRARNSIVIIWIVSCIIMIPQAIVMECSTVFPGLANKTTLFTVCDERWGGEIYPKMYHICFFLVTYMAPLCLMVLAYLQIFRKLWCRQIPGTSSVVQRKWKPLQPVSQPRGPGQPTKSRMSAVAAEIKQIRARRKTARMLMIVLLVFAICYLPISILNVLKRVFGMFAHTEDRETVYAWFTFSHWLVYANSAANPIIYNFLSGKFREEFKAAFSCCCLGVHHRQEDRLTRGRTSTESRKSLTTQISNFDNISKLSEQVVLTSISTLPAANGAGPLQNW
Protocol: In a typical experiment the OX1 and OX2 receptor antagonistic activity of the compounds of the present invention was determined in accordance with the following experimental method. For intracellular calcium measurements, Chinese hamster ovary (CHO) cells expressing the rat orexin-1 receptor or the human orexin-2 receptor, are grown in Iscove's modified DMEM containing 2 mM L-glutamine, […], 1% hypoxanthine-thymidine supplement, 100 U/ml penicillin, 100 μg/ml streptomycin and 10% heat-inactivated fetal calf serum (FCS). The cells are seeded at 20,000 cells/well into Becton-Dickinson black 384-well clear bottom sterile plates coated with poly-D-lysine. All reagents were from GIBCO-Invitrogen Corp. The seeded plates are incubated overnight at 37° C. and 5% CO2. Ala-6,12 human orexin-A as the agonist is prepared as a 1 mM stock solution in 1% bovine serum albumin (BSA) and diluted in assay buffer (HBSS containing 20 mM HEPES, 0.1% BSA and 2.5 mM probenecid, pH7.4) for use in the assay at a final concentration of 70 pM. Test compounds are prepared as 10 mM stock solution in DMSO, then diluted in 384-well plates, first in DMSO, then assay buffer. On the day of the assay, cells are washed 3 times with 100 μl assay buffer and then incubated for 60 min (37° C., 5% CO2) in 60 μl assay buffer containing 1 μM Fluo-4AM ester, 0.02% pluronic acid, and 1% BSA. The dye loading solution is then aspirated and cells are washed 3 times with 100 μl assay buffer. 30 μl of that same buffer is left in each well. Within the Fluorescent Imaging Plate Reader (FLIPR, Molecular Devices), test compounds are added to the plate in a volume of 25 μl, incubated for 5 min and finally 25 μl of agonist is added. Fluorescence is measured for each well at 1 second intervals for 5 minutes and the height of each fluorescence peak is compared to the height of the fluorescence peak induced by 70 pM Ala-6,12 orexin-A with buffer in place of antagonist. […] Alternatively, compound potency can be assessed by a radioligand binding assay (described in Bergman et. al. Bioorg. Med. Chem. Lett. 2008, 18, 1425-1430) in which the inhibition constant (Ki) is determined in membranes prepared from CHO cells expressing either the OX1 or OX2 receptor. The intrinsic orexin receptor antagonist activity of a compound which may be used in the present invention may be determined by these assays.

| Structure (SMILES) | IC50 (hOX1R) [µM] | IC50 (human orexin-2 receptor) [µM] |
| --- | --- | --- |
| N#Cc1ccnc(N2CC[C@@H]3CCN(C(=O)c4ccccc4-n4nccn4)C[C@@H]32)c1Cl [Example A19, 3-chloro-2-[(3aR, 7aR)-6-{[2-(2H-1,2,3-triazol-2-yl)phenyl]carbonyl}octahydro-1H-pyrrolo[2,3-c]pyridin-1-yl]pyridine-4-carbonitrile] | ≥ 10 | 0.0955 |
| O=C(c1ccccc1-n1nccn1)N1CC[C@H]2CCN(c3cc(C(F)(F)F)ccn3)[C@H]2C1 [Example A20, (3aR, 7aR)-6-{[2-(2H-1,2,3-triazol-2-yl)phenyl]carbonyl}-1-[4-(trifluoromethyl)pyridin-2-yl]octahydro-1H-pyrrolo[2,3-c]pyridine] | 3.96 | 0.0665 |
| Cc1ccnc(N2CC[C@@H]3CCN(C(=O)c4ccccc4-n4nccn4)C[C@@H]32)c1 [Example B1, (2-(2H-1,2,3-triazol-2-yl)phenyl)((3aR,7aR)-1-(4-methylpyridin-2-yl)hexahydro-1H-pyrrolo[2,3-c]pyridin-6(2H)-yl)methanone] | ≥ 10 | 0.902 |
| COc1ccnc(N2CC[C@@H]3CCN(C(=O)c4ccccc4-n4nccn4)C[C@@H]32)c1 [Example B3, (3aR, 7aR)-(2-(2H-1,2,3-triazol-2-yl)phenyl)(1-(4-methoxypyridin-2-yl)hexahydro-1H-pyrrolo[2,3-c]pyridin-6(2H)-yl)methanone] | ≥ 10 | 1.01 |
| CCOc1ccnc(N2CC[C@@H]3CCN(C(=O)c4ccccc4-n4nccn4)C[C@@H]32)c1 [Example B4, (3aR, 7aR)-(2-(2H-1,2,3-triazol-2-yl)phenyl)(1-(4-ethoxypyridin-2-yl)hexahydro-1H-pyrrolo[2,3-c]pyridin-6(2H)-yl)methanone] | ≥ 10 | 0.766 |
| N#Cc1cc(N2CC[C@@H]3CCN(C(=O)c4ccccc4-n4nccn4)C[C@@H]32)ncc1F [Example B5, 5-fluoro-2-[(3aR, 7aR)-6-{[2-(2H-1,2,3-triazol-2-yl)phenyl]carbonyl}octahydro-1H-pyrrolo[2,3-c]pyridin-1-yl]pyridine-4-carbonitrile] | ≥ 10 | 4.72 |
| N#Cc1cccc(N2CC[C@@H]3CCN(C(=O)c4ccccc4-n4nccn4)C[C@@H]32)c1 [Example B6, 3-((3aR, 7aR)-6-(2-(2H-1,2,3-triazol-2-yl)benzoyl)octahydro-1H-pyrrolo[2,3-c]pyridin-1-yl)benzonitrile] | ≥ 10 | 1.73 |
| O=C(c1ccccc1-n1nccn1)N1CC[C@H]2CCN(c3ncnc4[nH]ccc34)[C@H]2C1 [Example B7, (3aR, 7aR)-(2-(2H-1,2,3-triazol-2-yl)phenyl)(1-(7H-pyrrolo[2,3-d]pyrimidin-4-yl)hexahydro-1H-pyrrolo[2,3-c]pyridin-6(2H)-yl)methanone] | 10 | 10 |
| O=C(c1ccccc1-n1nccn1)N1CC[C@H]2CCN(c3nccc4ncccc34)[C@H]2C1 [Example B8, 5-[(3aR, 7aR)-6-{[2-(2H-1,2,3-triazol-2-yl)phenyl]carbonyl}octahydro-1H-pyrrolo[2,3-c]pyridin-1-yl]-1,6-naphthyridine] | 10 | 2.52 |
| O=C(c1ccccc1-n1nccn1)N1CC[C@H]2CCN(c3nccc4ccccc34)[C@H]2C1 [Example B9, (2-(2H-1,2,3-triazol-2-yl)phenyl)((3aR, 7aR)-1-(isoquinolin-1-yl)hexahydro-1H-pyrrolo[2,3-c]pyridin-6(2H)-yl)methanone] | 1.66 | 0.0408 |
| O=C(c1ccccc1-n1nccn1)N1CC[C@H]2CCN(c3ccnc4ccccc34)[C@H]2C1 [Example B10, (2-(2H-1,2,3-triazol-2-yl)phenyl)((3aR, 7aR)-1-(quinolin-4-yl)hexahydro-1H-pyrrolo[2,3-c]pyridin-6(2H)-yl)methanone] | 10 | 3.43 |
| COC(=O)c1csc(N2CC[C@@H]3CCN(C(=O)c4ccccc4-n4nccn4)C[C@@H]32)n1 [Example B11, methyl 2-((3aS, 7aR)-6-(2-(2H-1,2,3-triazol-2-yl)benzoyl)octahydro-1H-pyrrolo[2,3-c]pyridin-1-yl)thiazole-4-carboxylate] | 10 | 10 |
| O=C(c1ccccc1-n1nccn1)N1CC[C@H]2CCN(c3nccn4nccc34)[C@H]2C1 [Example B13, (3aR, 7aR)-6-(2-(2H-1,2,3-triazol-2-yl)benzoyl)-1-(pyrazolo[1,5-a]pyrazin-4-yl)ocathydro-1H-pyrrolo[2,3-c]pyridin-1-ium] | 10 | 2.02 |
| O=C(c1ccccc1-n1nccn1)N1CC[C@H]2CCN(c3nccn4ccnc34)[C@H]2C1 [Example B14, (2-(2H-1,2,3-triazol-2-yl)phenyl)((3aR, 7aR)-1-(imidazo[1,2-a]pyrazin-8-yl)hexahydro-1H-pyrrolo[2,3-c]pyridin-6(2H)-yl)methanone] | ≥ 10 | 1.07 |
| O=C(c1ccccc1-n1nccn1)N1CC[C@H]2CCN(c3ncnc4sccc34)[C@H]2C1 [Example B15, (2-(2H-1,2,3-triazol-2-yl)phenyl)((3aR, 7aR)-1-(thieno[2,3-d]pyrimidin-4-yl)hexahydro-1H-pyrrolo[2,3-c]pyridin-6(2H)-yl)methanone] | ≥ 10 | ≥ 10 |
| O=C(c1ccccc1-n1nccn1)N1CC[C@H]2CCN(c3nccc4cccnc34)[C@H]2C1 [Example B16, ((3aR, 7aR)-1-(1,7-naphthyridin-8-yl)hexahydro-1H-pyrrolo[2,3-c]pyridin-6(2H)-yl)(2-(2H-1,2,3-triazol-2-yl)phenyl)methanone] | ≥ 10 | 0.75 |
| O=C(c1ccccc1-n1nccn1)N1CC[C@H]2CCN(c3ccc4ccccc4n3)[C@H]2C1 [Example B18, 2-[(3aR, 7aR)-6-{[2-(2H-1,2,3-triazol-2-yl)phenyl]carbonyl}octahydro-1H-pyrrolo[2,3-c]pyridin-1-yl]quinoline] | 1.04 | 1.53 |
| O=C1OCc2c1ccnc2N1CC[C@@H]2CCN(C(=O)c3ccccc3-n3nccn3)C[C@@H]21 [Example B19, 4-[(3aR, 7aR)-6-{[2-(2H-1,2,3-triazol-2-yl)phenyl]carbonyl}octahydro-1H-pyrrolo[2,3-c]pyridin-1-yl]furo[3,4-c]pyridin-1(3H)-one] | 10 | 1.01 |
| Cc1cncc(N2CC[C@@H]3CCN(C(=O)c4ccccc4-n4nccn4)C[C@@H]32)n1 [Example B20, (3aR, 7aR)-1-(6-methylpyrazin-2-yl)-6-{[2-(2H-1,2,3-triazol-2-yl)phenyl]carbonyl}octahydro-1H-pyrrolo[2,3-c]pyridine] | ≥ 10 | 2.08 |
| Cc1ncc(N2CC[C@@H]3CCN(C(=O)c4ccccc4-n4nccn4)C[C@@H]32)nc1C [Example B21, (3aR, 7aR)-1-(5,6-dimethylpyrazin-2-yl)-6-{[2-(2H-1,2,3-triazol-2-yl)phenyl]carbonyl}octahydro-1H-pyrrolo[2,3-c]pyridine] | 10 | 0.948 |
| Cc1cnc(C)c(N2CC[C@@H]3CCN(C(=O)c4ccccc4-n4nccn4)C[C@@H]32)n1 [Example B22, (3aR, 7aR)-1-(3,6-dimethylpyrazin-2-yl)-6-{[2-(2H-1,2,3-triazol-2-yl)phenyl]carbonyl}octahydro-1H-pyrrolo[2,3-c]pyridine] | ≥ 10 | 5.91 |
| O=C(c1ccccc1-n1nccn1)N1CC[C@H]2CCN(c3cncc4ccccc34)[C@H]2C1 [Example B23, 4-[(3aR, 7aR)-6-{[2-(2H-1,2,3-triazol-2-yl)phenyl]carbonyl}octahydro-1H-pyrrolo[2,3-c]pyridin-1-yl]isoquinoline] | 10 | 7.07 |
| CC(C)(O)c1csc(N2CC[C@H]3CCN(C(=O)c4ccccc4-n4nccn4)C[C@@H]32)n1 [Example C1] | 10 | 0.202 |
| CC(C)(O)c1coc(N2CC[C@@H]3CCN(C(=O)c4ccccc4-n4nccn4)C[C@@H]32)n1 [Example C2] | 10 | 0.342 |
| CC(O)(c1cncc(N2CC[C@@H]3CCN(C(=O)c4ccccc4-n4nccn4)C[C@@H]32)n1)C(F)(F)F (stereo partly drawn) [Example C3, 1,1,1-trifluoro-2-{6-[(3aR, 7aR)-6-{[2-(2H-1,2,3-triazol-2-yl)phenyl]carbonyl}octahydro-1H-pyrrolo[2,3-c]pyridin-1-yl]pyrazin-2-yl}propan-2-ol] | ≥ 10 | 3.34 |
